Publication PMC11054271, “ABCG2 Transports the Flukicide Nitroxynil and Affects Its Biodistribution and Secretion into Milk” (Pharmaceutics, 2024)
Read-outs that look alike come from different tables or passages of the source.

Assays:
[1] = test system: murine Abcg2; assay: Tissue distribution in wild-type and Abcg2−/− male mice; format: in vivo; details: 10 mg/kg s.c.
Method: (§1) All in vivo experiments were carried out using wild-type and Abcg2^−/− mice aged between 8 and 17 weeks, all of >99% FVB/N genetic background, generated and gently supplied by A. H. Schinkel (Netherlands Cancer Institute). Mice were housed and handled complying with institutional and ARRIVE guidelines and European legislation (EU Directive 2010/63/EU for animal experiments). Additionally, experimental procedures were approved by the Animal Care and Use Committee of the University of León and the Junta de Castilla y León (ULE_011_2019).
(§2) For pharmacokinetic experiments, a single dose of nitroxynil at 10 mg/kg was administered subcutaneously to wild-type and Abcg2^−/− male mice (n = 4–5, for each time point). Distomicide® (250 mg/mL) commercial solution was dissolved in saline (sodium chloride 0.9%) and dosed at 200 μL per 30 g body weight. Blood samples were collected at different time points (0.5, 3, 4.5, 6, 24, 48 and 96 h) and heparinized blood samples were centrifugated for 15 min at 3000× g. Organs were also collected at 24 and 96 h after euthanasia. Linear trapezoidal rule was used to calculate the area under the plasma concentration–time curve (AUC) parameter.
(§3) Plasma, milk and tissue samples from each animal were individually processed and analyzed without pooling, while samples from transport assays were not processed. Tissue samples were homogenized in a mixture of 50% water/50% methanol HCl 0.5% (v/v); 1 mL solution per 0.1 g tissue. The entire amount of collected milk (74.7–295.1 mg) and 100 μL plasma and tissue homogenates were processed. To each sample, 10 μL of a nitrofurantoin solution (10 μg/mL for plasma and milk and 2 μg/mL for homogenized tissues) was added as an internal standard and 150 μL acetonitrile was used to precipitate the proteins. The mixture was vortexed horizontally for 15 min and centrifugated at 10,000× g for 5 min at 4 °C. Supernatant was transferred to a new tube and dried at 40 °C under N2 stream. Samples were reconstituted in 100 μL of mobile phase and 50 μL was injected into HPLC. Standards were subjected to the same procedures as samples.
(§4) Waters 2695 separation module and Waters 2998 UV photodiode array detector set at 270 nm were used for samples analysis. Chromatographic conditions for nitroxynil detection were based on previously described methods, with minor modifications. Chromatographic separation was achieved on a reverse-phase column (Synergy 4 μm Hydro–RP 80 Å, 250 × 4.60 mm; Phenomenex®, Torrance, CA, USA) using an isocratic binary mobile phase consisting of 25 mM potassium phosphate monobasic (KH2PO4), pH 4: acetonitrile (70:30 for culture samples and 80:20 for animal samples) at a flow rate of 1 mL/min. Autosampler and column temperature were 4 °C and 40 °C, respectively. Limit of detection (LOD) and quantification (LOQ) were calculated as previously described. For cell culture samples, LOD and LOQ were 0.003 μg/mL and 0.007 μg/mL, respectively. For in vivo samples, LOD was in the range of 0.01–0.07 μg/mL and LOQ in the range of 0.03–0.15 μg/mL.

[2] = test system: T1, murine Abcg2; assay: as above; format: in vivo; details: FVB/N, mouse, sc, wild-type male mice, 10 mg/kg s.c.
T1 construct: from tissue; host or cells: whole animal: wild-type vs Abcg2-/- mice, >99% FVB/N background
Method: as §1, §2, §3, §4

[3] = design: method as in PMID 7180778; details: cited from earlier work
[4] = design: method as in PMID 21657788; details: cited from earlier work
[5] = target: T2, murine Abcg2 (Mus musculus, UniProt Q7TMS5); assay: Plasma pharmacokinetics in wild-type and Abcg2−/− male mice; format: in vivo; design: from tissue; host or cells: whole animal: wild-type vs Abcg2-/- mice, >99% FVB/N background; details: 10 mg/kg s.c.
T2 sequence (Q7TMS5 1-657): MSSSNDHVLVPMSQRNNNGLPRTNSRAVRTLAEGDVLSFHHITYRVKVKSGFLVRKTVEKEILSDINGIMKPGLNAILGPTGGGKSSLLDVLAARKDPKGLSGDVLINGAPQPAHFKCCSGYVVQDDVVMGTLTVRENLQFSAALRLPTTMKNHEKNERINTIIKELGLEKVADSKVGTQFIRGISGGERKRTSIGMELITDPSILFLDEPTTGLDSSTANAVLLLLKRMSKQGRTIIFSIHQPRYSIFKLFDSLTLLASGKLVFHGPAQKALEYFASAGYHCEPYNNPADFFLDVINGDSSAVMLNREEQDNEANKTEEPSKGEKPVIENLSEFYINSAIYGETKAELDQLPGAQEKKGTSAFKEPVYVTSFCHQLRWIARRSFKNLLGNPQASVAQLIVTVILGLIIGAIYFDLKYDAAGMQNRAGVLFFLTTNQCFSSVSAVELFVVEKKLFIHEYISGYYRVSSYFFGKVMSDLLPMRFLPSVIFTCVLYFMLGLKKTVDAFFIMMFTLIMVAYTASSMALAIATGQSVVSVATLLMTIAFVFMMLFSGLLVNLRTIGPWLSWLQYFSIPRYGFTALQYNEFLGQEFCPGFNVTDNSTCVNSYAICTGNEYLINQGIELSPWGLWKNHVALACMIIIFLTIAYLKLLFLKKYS
Method: as §1
as §2, with “Organs were also collected at 24 and 96 h after euthanasia. Linear trapezoidal rule was used to calculate the area under the plasma concentration–time curve (AUC) parameter.” left out
Plasma, milk and tissue samples from each animal were individually processed and analyzed without pooling, while samples from transport assays were not processed. […]
Waters 2695 separation module and Waters 2998 UV photodiode array detector set at 270 nm were used for samples analysis. […] Limit of detection (LOD) and quantification (LOQ) were calculated as previously described. […]

Question: What does the source list for N#Cc1cc(I)c(O)c([N+](=O)[O-])c1 [nitroxynil]?
Answer: Tissue concentration, spleen ([1]; Abcg2−/− male mice, 96 h): <LOQ; Kp at 96 h ([1]; FVB/N, mouse, kidney and plasma, sc, Abcg2−/− male mice, 96 h, read-out: Tissue/plasma ratio, kidney): 0.03 ± 0.01; concentration at 24 h ([1]; FVB/N, mouse, kidney, sc, Abcg2−/− male mice, read-out: Tissue concentration, kidney): 8200 ± 1800 ng/g; concentration at 96 h ([1]; FVB/N, mouse, kidney, sc, Abcg2−/− male mice, 96 h, read-out: Tissue concentration, kidney): 3500 ± 300 ng/g; concentration at 24 h ([1]; FVB/N, mouse, liver, sc, Abcg2−/− male mice, read-out: Tissue concentration, liver): 1300 ± 300 ng/g; concentration at 96 h ([1]; FVB/N, mouse, liver, sc, Abcg2−/− male mice, 96 h, read-out: Tissue concentration, liver): 700 ± 200 ng/g; concentration at 24 h ([1]; FVB/N, mouse, small intestine, sc, Abcg2−/− male mice, read-out: Levels of nitroxynil in small intestine): 1600 ± 300 ng/mL; concentration at 24 h ([1]; FVB/N, mouse, small intestine, sc, Abcg2−/− male mice, read-out: Tissue concentration, small intestine): 1600 ± 300 ng/g; concentration at 96 h ([1]; FVB/N, mouse, small intestine, sc, Abcg2−/− male mice, 96 h, read-out: Tissue concentration, small intestine): 500 ± 100 ng/g; concentration at 24 h ([1]; FVB/N, mouse, spleen, sc, Abcg2−/− male mice, read-out: Accumulation in spleen): 2500 ± 300 ng/mL; concentration at 24 h ([1]; FVB/N, mouse, spleen, sc, Abcg2−/− male mice, read-out: Tissue concentration, spleen): 2500 ± 300 ng/g; concentration at 24 h ([1]; FVB/N, mouse, testis, sc, Abcg2−/− male mice, read-out: Concentration in testis): 4200 ± 800 ng/mL; concentration at 24 h ([1]; FVB/N, mouse, testis, sc, Abcg2−/− male mice, read-out: Tissue concentration, testis): 4200 ± 800 ng/g; concentration at 96 h ([1]; FVB/N, mouse, testis, sc, Abcg2−/− male mice, 96 h, read-out: Tissue concentration, testis): 1100 ± 200 ng/g; Brain levels ([1]; wild-type and Abcg2−/− male mice, 24 and 96 h, almost all samples): below LOQ; Kp at 96 h ([2]; kidney and plasma, 96 h, read-out: Tissue/plasma ratio, kidney): 0.06 ± 0.01; concentration at 24 h ([2]; kidney, read-out: Tissue concentration, kidney): 5900 ± 1200 ng/g; concentration at 96 h ([2]; kidney, 96 h): 900 ± 100 ng/g; concentration at 24 h ([2]; liver, read-out: Tissue concentration, liver): 900 ± 300 ng/g; concentration at 24 h ([2]; small intestine, read-out: Levels of nitroxynil in small intestine): 1100 ± 200 ng/mL; concentration at 24 h ([2]; small intestine, read-out: Tissue concentration, small intestine): 1100 ± 200 ng/g; concentration at 24 h ([2]; spleen, read-out: Accumulation in spleen): 1400 ± 300 ng/mL; concentration at 24 h ([2]; spleen, read-out: Tissue concentration, spleen): 1400 ± 300 ng/g; concentration at 24 h ([2]; testis, read-out: Concentration in testis): 2600 ± 200 ng/mL; concentration at 24 h ([2]; testis, read-out: Tissue concentration, testis): 2600 ± 200 ng/g; Time after treatment at which residues have been found in tissues [3]: ≤ 90 days; Time after treatment at which residues have been found in milk [4]: up to 58 days; AUC ([5]; FVB/N, mouse, plasma, sc, wild-type male mice, 0.5-96 h): 1920 ± 49.1 µg·h/mL; Plasma AUC, fold higher in Abcg2−/− compared with wild-type ([5]; male mice): 1.8 fold
